Tests used:
[1] = Octreotide prophylaxis of irinotecan-induced diarrhea in patients receiving irinotecan; assay type: in vivo; conditions: octreotide prophylactic treatment before or concurrent with irinotecan; octreotide acetate long-acting release formulation 10, 20 or 30 mg
Method: In the prophylaxis of diarrhea according to the invention, octreotide may be administered simultaneously with irinotecan, or the compounds may be administered sequentially, in any desired order. Preferably octreotide is administered some days before the first irinotecan administration and subsequent octreotide administrations are before or simultaneous with irinotecan administration, the time of administration (dosing intervals) of octreotide depending on the preferred irinotecan-scheduled regimen. In a preferred embodiment of the present invention, octreotide acetate long-acting release formulation is administered 10-14 days prior to the first irinotecan dose. For example, when irinotecan is administered in a planned 6-week cycle, wherein irinotecan is given intravenously as a single-agent or in combination with other antineoplastic agents such as, e.g., cisplatin, 5-fluoruracil or others, over 30-90 minutes once weekly for 4 weeks followed by a 2-week rest period, octreotide acetate long-acting release formulation may be administered prior to the first irinotecan dose and again on Day 15 or Day 22 of this 6-week cycle. The octreotide acetate long-acting release formulation dosage is 10 mg, 20 mg or 30 mg at the time of each octreotide administration. […]

[2] = cited from earlier work
[3] = patients who experienced this side-effect during a previous course of chemotherapy; cited from earlier work
[4] = prophylaxis against chemotherapy-induced diarrhea; cited from earlier work
[5] = intensive, immediate application once diarrhea has started; cited from earlier work

| Compound | severity and duration of diarrhea [1] | treatment of 5-fluorouracil-induced diarrhea ([2]; Meropol et al. 1998) | efficacy in therapy of 5-fluorouracil-induced diarrhea, compared with loperamide ([2]; randomized trial comparing octreotide with loperamide) | prevention of diarrhea associated with cisplatin [3] | prevention of diarrhea associated with 5-fluorouracil plus leucovorin [4] | frequency of diarrhea [5] | severity of diarrhea [5] |
| --- | --- | --- | --- | --- | --- | --- | --- |
| C[C@@H](O)[C@@H]1NC(=O)[C@H](CCCCN)NC(=O)[C@@H](Cc2c[nH]c3ccccc23)NC(=O)[C@H](Cc2ccccc2)NC(=O)[C@@H](NC(=O)[C@H](N)Cc2ccccc2)CSSC[C@@H](C(=O)N[C@H](CO)[C@@H](C)O)NC1=O (relative stereo) [octreotide, L-cysteinamide,D-phenylalanyl-L-cysteinyl-L-phenylalanyl-D-tryptophyl-L-lysyl-L-threonyl-N-[2-hydro-1-hydroxymethyl) propyl]-, cyclic (2→7)-disulfide; [R-(R*,R*)]] | avoids or remarkably limits the severity and duration of diarrhea in many cases | successful in the treatment of 5-fluorouracil-induced diarrhea | more effective than loperamide | active in preventing diarrhea | does not prevent diarrhea | – | – |
| CN(C)C(=O)C(CCN1CCC(O)(c2ccc(Cl)cc2)CC1)(c1ccccc1)c1ccccc1 [loperamide] | – | – | – | – | – | had not reduced the frequency of diarrhea | often successful in reducing the severity of diarrhea |

From patent US6395708B1, “Method for preventing diarrhea” (Novartis, A.G., priority 1999, dated 2002)
